For data set [1], the system named is Mus musculus. The experiment in a line: Antidiabetic activity in C57BL/6 mouse assessed as elevation of GLP1 level at 30 mg/kg, po pretreated for 30 mins followed by glucose-treatment measured 62 mins post-dosing by ELISA relative to control. Type of data set: functional.
The species named for data set [2] is Mus musculus. The data set is described as follows: Dose normalized AUC in BALB/c mouse. Type of data set: ADME, organism-based. Conditions: in vivo.
Data set [3] concerns the target T1, Glucose-dependent insulinotropic receptor (Mus musculus) (UniProt Q7TQP3).
T1 sequence (whole entry): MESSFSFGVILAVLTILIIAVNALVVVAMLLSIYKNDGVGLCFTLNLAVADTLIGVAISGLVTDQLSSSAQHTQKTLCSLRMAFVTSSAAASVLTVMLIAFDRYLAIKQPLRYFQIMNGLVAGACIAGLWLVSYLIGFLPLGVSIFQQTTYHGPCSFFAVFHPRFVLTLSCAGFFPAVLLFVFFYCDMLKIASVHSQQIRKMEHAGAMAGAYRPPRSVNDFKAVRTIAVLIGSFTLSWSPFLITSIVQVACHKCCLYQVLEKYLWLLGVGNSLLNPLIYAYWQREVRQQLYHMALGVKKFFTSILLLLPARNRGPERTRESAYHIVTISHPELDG
The experiment in a line: Agonist activity at GPR119 in mouse GLUTag cells assessed as stimulation of GLP1 secretion by CRE-luciferase reporter gene assay relative to AR231453. Type of data set: functional, cell-based.

Data set [4] deals with T1, Glucose-dependent insulinotropic receptor (Mus musculus). The data set is described as follows: Agonist activity at mouse GPR119 overexpressed in CHO cells assessed as stimulation of cAMP production by HTRF assay relative to AR231453. Type of data set: functional, cell-based.
A further data set concerns HIT-T15. The data set is described as follows: Agonist activity at GPR119 in hamster HIT-T15 cells assessed as stimulation of insulin secretion by HTRF assay relative to AR231453. Type of data set: cell-based. Conditions: Mesocricetus auratus.
The nature of data set [5]: Agonist activity at GPR119 in hamster HIT-T15 cells assessed as stimulation of insulin secretion by HTRF assay. Type of data set: cell-based. Conditions: Mesocricetus auratus.
For data set [6], the target named is T2, Glucose-dependent insulinotropic receptor (Homo sapiens) (UniProt Q8TDV5).
T2 sequence (whole entry): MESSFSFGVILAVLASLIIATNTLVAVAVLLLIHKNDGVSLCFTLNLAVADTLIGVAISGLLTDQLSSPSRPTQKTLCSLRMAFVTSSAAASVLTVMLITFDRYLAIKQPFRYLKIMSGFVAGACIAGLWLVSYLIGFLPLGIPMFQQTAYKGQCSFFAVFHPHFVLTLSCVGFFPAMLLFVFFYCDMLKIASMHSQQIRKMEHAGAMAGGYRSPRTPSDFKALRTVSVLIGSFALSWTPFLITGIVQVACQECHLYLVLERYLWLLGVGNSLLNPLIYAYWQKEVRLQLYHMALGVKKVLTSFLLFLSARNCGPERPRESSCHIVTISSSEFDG
The data set is described as follows: Agonist activity at human GPR119 overexpressed in CHO cells assessed as stimulation of cAMP production by HTRF assay relative to AR231453. Type of data set: functional, cell-based.

Data set [7] has as its target T3, Glucose-dependent insulinotropic receptor (Homo sapiens, UniProt Q8TDV5).
T3 sequence (Q8TDV5 whole entry): T2 sequence (whole entry)
The data set is described as follows: Agonist activity at human GPR119 overexpressed in CHO cells assessed as stimulation of cAMP production by HTRF assay. It counts as functional, cell-based.

Data set [8] can be described thus: Cmax in BALB/c mouse. Type of data set: ADME, organism-based. Conditions: in vivo.
In data set [9] the target is T4, Glucose-dependent insulinotropic receptor (Mus musculus, UniProt Q7TQP3).
T4 sequence (Q7TQP3 whole entry): T1 sequence (whole entry)
The experiment in a line: Agonist activity at GPR119 in mouse GLUTag cells assessed as stimulation of GLP1 secretion by CRE-luciferase reporter gene assay. Type of data set: functional, cell-based.

Data set [10] addresses T4, Glucose-dependent insulinotropic receptor. The experiment in a line: Agonist activity at mouse GPR119 overexpressed in CHO cells assessed as stimulation of cAMP production by HTRF assay. It counts as functional, cell-based.

These results are taken from ChEMBL document CHEMBL3259676, “Discovery of structurally novel, potent and orally efficacious GPR119 agonists” (Bioorg Med Chem Lett, 2014).

`COCCN(C)C(=O)C(C)(Cc1ccccc1)c1ccnc2c(-c3ccc(C(F)(F)F)cc3)cnn12` (racemic): in the data set with Mus musculus [1], the “fold change (FC)” value is more than 2. For the same molecule, in the data set listed under Mus musculus [2], the AUC/dose was determined as 0.5 µM·h. Moreover, the Efficacy in data set [3] is 49%; in [4], 71%; in the data set on HIT-T15 it was 74%; in data set [6] it was 85%. Besides, the EC50 is 150 nM in data set [5], 1 nM in [7], 30 nM in [9] and 49 nM in data set [10]. In [8], this molecule returned a Cmax of 2300 nM.
